Data published in US20250059171A1 (Hoffmann-La Roche Inc., priority 2021, published 2025).
Where two headings read alike, the source gives them in different places.

Assays:
[1] = molecular target: MERS-CoV 3CLpro (Middle East respiratory syndrome-related coronavirus, UniProt K9N7C7); assay: biochemical
[2] = molecular target: SARS-CoV-2 3CLpro (Severe acute respiratory syndrome coronavirus 2, UniProt P0DTD1); assay: biochemical
[3] = molecular target: SARS-CoV 3CLpro (Severe acute respiratory syndrome coronavirus, UniProt P0C6X7); assay: biochemical
[4] = molecular target: HCoV-229E 3CLpro (Human coronavirus 229E, UniProt P0C6X1); assay: HCoV-229E 3CLpro inhibition assay (FRET); assay type: biochemical
HCoV-229E 3CLpro, sequence (P0C6X1 2966-3267): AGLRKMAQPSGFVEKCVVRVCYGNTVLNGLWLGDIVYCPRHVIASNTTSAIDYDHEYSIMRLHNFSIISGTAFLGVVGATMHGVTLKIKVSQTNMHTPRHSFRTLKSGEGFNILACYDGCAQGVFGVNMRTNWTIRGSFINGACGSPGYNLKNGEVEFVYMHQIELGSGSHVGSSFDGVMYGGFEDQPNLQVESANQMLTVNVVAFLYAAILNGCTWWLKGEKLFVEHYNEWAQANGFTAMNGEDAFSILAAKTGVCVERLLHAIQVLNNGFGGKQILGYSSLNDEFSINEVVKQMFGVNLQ

MERS-CoV 3CLpro, sequence (K9N7C7 3248-3553): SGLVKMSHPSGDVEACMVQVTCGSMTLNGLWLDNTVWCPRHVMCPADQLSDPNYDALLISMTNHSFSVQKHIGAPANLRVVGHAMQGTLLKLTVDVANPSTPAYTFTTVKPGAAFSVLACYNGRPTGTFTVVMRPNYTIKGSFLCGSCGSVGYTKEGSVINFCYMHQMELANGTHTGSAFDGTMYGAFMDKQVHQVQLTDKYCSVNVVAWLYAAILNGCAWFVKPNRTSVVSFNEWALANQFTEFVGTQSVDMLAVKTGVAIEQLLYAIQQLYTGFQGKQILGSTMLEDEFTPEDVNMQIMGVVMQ

SMILES | IC50 [1] [nM] | IC50 [2] [nM] | IC50 [3] [nM] | IC50 [4] [nM] | IC50 ([2]; read-out: IC50 in SARS-CoV-2 3CLpro assay) [nM]
CC[C@@H](C)[C@H](NC(=O)C1CC1(F)F)C(=O)N1C[C@H]2[C@@H]([C@H]1C(=O)NN(C[C@@H]1CCNC1=O)C(=O)[C@H](F)Cl)C2(C)C (mixture of isomers) [Example 113, Rac-2,2-difluoro-N-[(1S,2R)-2-methyl-1-[(1R,2S,5S)-6,6-dimethyl-2-[[[(2R)-2-chloro-2-fluoro-acetyl]-[[(3S)-2-oxopyrrolidin-3-yl]methyl]amino]carbamoyl]-3-azabicyclo[3.1.0]hexane-3-carbonyl]butyl]cyclopropanecarboxamide] | 79 | 10 | 15 | 23 | 
CC[C@@H](C)[C@H](NC(=O)C1CC1(F)F)C(=O)N1C[C@H]2[C@@H]([C@H]1C(=O)NN(C[C@@H]1CCNC1=O)C(=O)[C@@H](F)Cl)C2(C)C (mixture of isomers) [Example 124, Rac-2,2-difluoro-N-[(1S,2R)-2-methyl-1-[(1R,2S,5S)-6,6-dimethyl-2-[[[(2S)-2-chloro-2-fluoro-acetyl]-[[(3S)-2-oxopyrrolidin-3-yl]methyl]amino]carbamoyl]-3-azabicyclo[3.1.0]hexane-3-carbonyl]butyl]cyclopropanecarboxamide] | 115 | 26 | 45 | 41 | 
CCC(CC)[C@H](NC(=O)C(C)F)C(=O)N1CC(C)(C)C[C@H]1C(=O)NN(C[C@@H]1CCNC1=O)C(=O)[C@H](F)Cl (mixture of isomers) [Example 137, Rac-2-fluoro-N-[(1S)-2-ethyl-1-[(2S)-4,4-dimethyl-2-[[[(2R)-2-chloro-2-fluoro-acetyl]-[[(3S)-2-oxopyrrolidin-3-yl]methyl]amino]carbamoyl]pyrrolidine-1-carbonyl]butyl]propanamide] | 192 | 18 | 27 | 46 | 
CCC(C)(C)[C@H](NC(=O)C(C)F)C(=O)N1C[C@H]2[C@@H]([C@H]1C(=O)NN(C[C@@H]1CCNC1=O)C(=O)[C@@H](F)Cl)C2(C)C (mixture of isomers) [Example 146, Rac-2-fluoro-N-[(1S)-2,2-dimethyl-1-[(1R,2S,5S)-6,6-dimethyl-2-[[[(2S)-2-chloro-2-fluoro-acetyl]-[[(3S)-2-oxopyrrolidin-3-yl]methyl]amino]carbamoyl]-3-azabicyclo[3.1.0]hexane-3-carbonyl]butyl]propanamide] | 151 | 16 | 23 | 69 | 
CC(C)(C)[C@H](NC(=O)C(F)(F)F)C(=O)N1C[C@H]2[C@@H]([C@H]1C(=O)NN(C[C@H]1CCCNC1=O)C(=O)[C@H](F)Cl)C2(C)C (single isomer, unassigned) [Example 163a] | 226 | 9 | 18 | 52 | 
CC(C)(C)[C@H](NC(=O)C(F)(F)F)C(=O)N1C[C@H]2[C@@H]([C@H]1C(=O)NN(C[C@@H]1CCCNC1=O)C(=O)[C@H](F)Cl)C2(C)C (single isomer, unassigned) [Example 163b] | 469 | 17 | 33 | 104 | 
CC[C@H](C)[C@H](NC(=O)C(F)(F)F)C(=O)N1C[C@H]2[C@@H]([C@H]1C(=O)NN(C[C@@H]1CCCNC1=O)C(=O)[C@H](F)Cl)C2(C)C (single isomer, unassigned) [Example 165a] | 185 | 11 | 12 | 38 | 
CC[C@H](C)[C@H](NC(=O)C(F)(F)F)C(=O)N1C[C@H]2[C@@H]([C@H]1C(=O)NN(C[C@H]1CCCNC1=O)C(=O)[C@H](F)Cl)C2(C)C (single isomer, unassigned) [Example 165b] | 291 | 20 | 36 | 57 | 
CCC(C)[C@H](NC(=O)C1(F)CCC1)C(=O)N1C[C@@H]2CCC[C@@H]2[C@H]1C(=O)NN(C[C@@H]1CCNC1=O)C(=O)[C@H](F)Cl (stereo in doubt) [Example 125, N-[(1S,2S)-1-[(3S,3aS,6aR)-3-[[[(2R)-2-chloro-2-fluoro-acetyl]-[[(3S)-2-oxopyrrolidin-3-yl]methyl]amino]carbamoyl]-3,3a,4,5,6,6a-hexahydro-1H-cyclopenta[c]pyrrole-2-carbonyl]-2-methyl-butyl]-1-fluoro-cyclobutanecarboxamide] | 114 | 10 | 12 | 42 | 
CC(C)(C)[C@H](NC(=O)C(F)(F)F)C(=O)N1C[C@H]2[C@@H]([C@H]1C(=O)NN(C[C@@H]1CCNC1=O)C(=O)[C@H](F)Cl)C2(C)C [Example 1, N-[(1S)-1-[(1R,2S,5S)-2-[[[(2R)-2-chloro-2-fluoro-acetyl]-[[(3S)-2-oxopyrrolidin-3-yl]methyl]amino]carbamoyl]-6,6-dimethyl-3-azabicyclo[3.1.0]hexane-3-carbonyl]-2,2-dimethyl-propyl]-2,2,2-trifluoro-acetamide] | 115 | 10 | 15 | 35 | 
CC1(C)[C@@H]2[C@@H](C(=O)NN(C[C@@H]3CCNC3=O)C(=O)[C@H](F)Cl)N(C(=O)[C@@H](NC(=O)C(F)(F)F)C3CC3)C[C@@H]21 [Example 2, N-[(1S)-2-[(1R,2S,5S)-2-[[[(2R)-2-chloro-2-fluoro-acetyl]-[[(3S)-2-oxopyrrolidin-3-yl]methyl]amino]carbamoyl]-6,6-dimethyl-3-azabicyclo[3.1.0]hexan-3-yl]-1-cyclopropyl-2-oxo-ethyl]-2,2,2-trifluoro-acetamide] | 177 | 19 | 30 | 41 | 
CC(C)C[C@H](NC(=O)C(F)(F)F)C(=O)N1C[C@H]2[C@@H]([C@H]1C(=O)NN(C[C@@H]1CCNC1=O)C(=O)[C@H](F)Cl)C2(C)C [Example 3, N-[(1S)-1-[(1R,2S,5S)-2-[[[(2R)-2-chloro-2-fluoro-acetyl]-[[(3S)-2-oxopyrrolidin-3-yl]methyl]amino]carbamoyl]-6,6-dimethyl-3-azabicyclo[3.1.0]hexane-3-carbonyl]-3-methyl-butyl]-2,2,2-trifluoro-acetamide] | 174 | 14 | 20 | 38 | 
CC(C)(C)[C@H](NC(=O)C(F)(F)F)C(=O)N1C[C@@H]2CCC[C@@H]2[C@H]1C(=O)NN(C[C@@H]1CCNC1=O)C(=O)[C@H](F)Cl [Example 4, N-[(1S)-1-[(3S,3aS,6aR)-3-[[[(2R)-2-chloro-2-fluoro-acetyl]-[[(3S)-2-oxopyrrolidin-3-yl]methyl]amino]carbamoyl]-3,3a,4,5,6,6a-hexahydro-1H-cyclopenta[c]pyrrole-2-carbonyl]-2,2-dimethyl-propyl]-2,2,2-trifluoro-acetamide] | 70 |  | 16 | 39 | 6
CC(C)(C)[C@H](NC(=O)C(F)(F)F)C(=O)N1C[C@@H]2CC[C@@H]2[C@H]1C(=O)NN(C[C@@H]1CCNC1=O)C(=O)[C@H](F)Cl [Example 5, N-[(1S)-1-[(1S,2S,5R)-2-[[[(2R)-2-chloro-2-fluoro-acetyl]-[[(3S)-2-oxopyrrolidin-3-yl]methyl]amino]carbamoyl]-3-azabicyclo[3.2.0]heptane-3-carbonyl]-2,2-dimethyl-propyl]-2,2,2-trifluoro-acetamide] | 303 | 10 | 19 | 104 | 
C[C@@H]1C[C@@H](C(=O)NN(C[C@@H]2CCNC2=O)C(=O)[C@H](F)Cl)N(C(=O)[C@@H](NC(=O)C(F)(F)F)C(C)(C)C)C1 [Example 7, N-[(1S)-1-[(2S,4R)-2-[[[(2R)-2-chloro-2-fluoro-acetyl]-[[(3S)-2-oxopyrrolidin-3-yl]methyl]amino]carbamoyl]-4-methyl-pyrrolidine-1-carbonyl]-2,2-dimethyl-propyl]-2,2,2-trifluoro-acetamide] | 379 | 8 | 17 | 193 | 
CC1(C)C[C@@H](C(=O)NN(C[C@@H]2CCNC2=O)C(=O)[C@H](F)Cl)N(C(=O)[C@@H](NC(=O)C(F)(F)F)C(C)(C)C)C1 [Example 8, N-[(1S)-1-[(2S)-2-[[[(2R)-2-chloro-2-fluoro-acetyl]-[[(3S)-2-oxopyrrolidin-3-yl]methyl]amino]carbamoyl]-4,4-dimethyl-pyrrolidine-1-carbonyl]-2,2-dimethyl-propyl]-2,2,2-trifluoro-acetamide] | 136 | 10 | 25 | 42 | 
CC(C)(C)[C@H](NC(=O)C(F)(F)F)C(=O)N1C[C@@H]2C[C@@H]2[C@H]1C(=O)NN(C[C@@H]1CCNC1=O)C(=O)[C@H](F)Cl [Example 9, N-[(1S)-1-[(1S,2S,5R)-2-[[[(2R)-2-chloro-2-fluoro-acetyl]-[[(3S)-2-oxopyrrolidin-3-yl]methyl]amino]carbamoyl]-3-azabicyclo[3.1.0]hexane-3-carbonyl]-2,2-dimethyl-propyl]-2,2,2-trifluoro-acetamide] | 2780 | 12 | 38 | 939 | 
CC(C)(C)[C@H](NC(=O)C(F)(F)F)C(=O)N1C[C@H]2[C@@H]([C@H]1C(=O)NN(Cc1cc[nH]n1)C(=O)[C@H](F)Cl)C2(C)C [Example 10, N-[(1S)-1-[(1R,2S,5S)-2-[[[(2R)-2-chloro-2-fluoro-acetyl]-(1H-pyrazol-3-ylmethyl)amino]carbamoyl]-6,6-dimethyl-3-azabicyclo[3.1.0]hexane-3-carbonyl]-2,2-dimethyl-propyl]-2,2,2-trifluoro-acetamide] | 3040 | 21 | 373 | 1240 | 
